Article PMC7156724, “Potent BRD4 inhibitor suppresses cancer cell-macrophage interaction” (Nature Communications, 2020)
Where “and” joins values, the source holds several entries; their conditions need not be identical. Identical values can stand only once. Like-named read-outs stand apart in the source and are kept apart here. Each block holds one compound with its values, some of them ahead of it.

Experiments:
A375 melanoma cells = test: AlamarBlue assay, A375; type: cell-based, human; settings: for Cellular activity in melanoma cells (A375), alamarBlue: Fig.1g, replicates; for IC50: read-out: IC50, cellular activity in A375 (alamarBlue)
Description: 3. AlamarBlue assay. AlamarBlue was made by resazurin sodium salt (Sigma, Cat
# 199303) dissolved in PBS.
NCI-H211, MDA-MB231 and A375 cells were plated in 96-well plates at approximately 30% confluence and left overnight to adhere. In the following day, […]
of treatment, 10 μl AlamarBlue reagent (0.3 mg/ml) was added to each well, and after 18h, the florescence intensity in each well was measured using a top-reading fluorescent plate reader with excitation at 530 nm and emission at 590 nm. […]

A375 human melanoma = A375 human melanoma xenograft tumor growth; type: in vivo, mouse; settings: Fig.3e, 5 Days on, 2 Days off / week x3, individual animals
From the text: PO, oral administration; QD, once daily; BID, twice daily. b–d Tumor growth curves for A2780 ovarian tumor (n = 5) (b), TMD8 large B cell lymphoma (n = 6) (c), and B16F10 melanoma (n = 5) (d) bearing mice treated with the indicated compounds once daily for 11-21 days. e, f Tumor growth curves for A375 melanoma (n = 6) (e), and patient-derived xenograft (PDX) of melanoma (n = 5) (f) bearing mice treated with the indicated compounds once daily (5 days on, 2 days off) for 21 days. For d–f, NHWD-870 used is NHWD-870-HCl synthesized using Suzuki coupling route. Data are presented as mean ± SEM in (a, b, d, f) and mean + SEM in (c, e). p values were calculated using two-tailed, unpaired t tests. *p < 0.05; **p < 0.01; ***p < 0.001. Source data are provided as a Source Data file.
4–6 weeks old female BALB/c nude mice were used for most experiments, with the exception of 6–8 weeks old female C57BL/6 mice were used for B16F10 experiments, and 6–8 weeks old male BALB/c nude mice and SD rats were used for pharmacokinetic experiments. All animals were purchased from Shanghai SIPPR-Bk Lab Animal Co., Ltd. All animals were housed under a regimen of 12 h light/12 h dark cycles and specific pathogen-free conditions. 5×10^6 NCI-H526, ES-2, MDA-MB231, A2780, A375, B16F10, and TMD-8 cells (0.1 ml) were injected subcutaneously into female nude mice. The melanoma patient-derived xenograft model was derived from a human melanoma sample (BRAF, NARS and NF1 wild type, and p53 mutant) removed from a patient in Xiangya Hospital. Surgically removed tumor fragments were implanted subcutaneously into female NSG mice. When the tumors grew to ~1000 mm^3, they were harvested and cryopreserved or immediately re-implanted for expansion or experiments. Mouse body weight and tumor sizes were measured every 3 days. Once the tumors grew to 150–200 mm^3, mice were treated with the compounds as described in the Figures. 1 × 10^6 A2780 cells (1 ml) were injected into the abdominal cavity of nude mice. Ascitic volume and tumor weight were measured by an electronic balance. All the procedures were evaluated and approved by the Institutional Animal Care and Use Committee of Central South University and Yale University. […]
We apologize for not clearly labeling the experiments using compounds synthesized using Suzuki coupling method. In the revised manuscript, we modified the text to clearly mark the animal models in Fig 3d-f were tested using NHWD-870 synthesized using Suzuki […]
compared the activity of NHWD-870 synthesized using Stille coupling route with the NHWD-870 synthesized from Suzuki coupling route (Reviewer Figure 1). […]
activity and possible toxicity were identical.
Reviewer Figure 1 NHWD-870 synthesized through Stille or Suzuki route has similar properties in vivo. Tumor bearing mice were treated with 2mg/kg of the indicated compounds, orally administrated once daily for 21 days. Shown are tumor growth curves (a) and body weight change (b) for A375 melanoma bearing mice. […]
986158 in terms of potency, but apart from with the A375 melanocyte cell line, the advance seems relatively moderate. With such similar compounds, the pharmacokinetic properties and ability to accumulate at the desired site is often more important. Figure S6d (prev. Fig. 3d) in the previous

IC50 (A375 melanoma cells; Homo sapiens, A-375, nM printed in b8, the picture prints no unit): 35.6 nM
SMILES: CCNC(=O)C[C@@H]1N=C(c2ccc(Cl)cc2)c2cc(OC)ccc2-n2c(C)nnc21 [GSK-525762]
Cellular activity in melanoma cells (A375), alamarBlue (A375 melanoma cells; concentration(nM) 0.21442, listed as GSK-525672): 0.7 and 0.7152
Cellular activity in melanoma cells (A375), alamarBlue (A375 melanoma cells; concentration(nM) 0.31236, listed as GSK-525672): 2.411 and 2.845
Cellular activity in melanoma cells (A375), alamarBlue (A375 melanoma cells; concentration(nM) 0.4103, listed as GSK-525672): 1.577 and 2.366
Cellular activity in melanoma cells (A375), alamarBlue (A375 melanoma cells; concentration(nM) 0.6032, listed as GSK-525672): 8.146 and 9.5447
Cellular activity in melanoma cells (A375), alamarBlue (A375 melanoma cells; concentration(nM) 1.2043, listed as GSK-525672): 25.5205 and 30.3178
Cellular activity in melanoma cells (A375), alamarBlue (A375 melanoma cells; concentration(nM) 1.8024, listed as GSK-525672): 60.9618 and 63.2464
Cellular activity in melanoma cells (A375), alamarBlue (A375 melanoma cells; concentration(nM) 2.4, listed as GSK-525672): 99.5135 and 98.5975
Cellular activity in melanoma cells (A375), alamarBlue (A375 melanoma cells; concentration(nM) 3, listed as GSK-525672): 100.155 and 100.899

IC50 (A375 melanoma cells; nM): 55.5 nM
SMILES: COc1cc2c(cc1-c1c(C)noc1C)ncc1[nH]c(=O)n([C@H](C)c3ccccn3)c12 [I-BET151]
Cellular activity in melanoma cells (A375), alamarBlue (A375 melanoma cells; concentration(nM) 0.21442): 0.1541 and 0.2687
Cellular activity in melanoma cells (A375), alamarBlue (A375 melanoma cells; concentration(nM) 0.31236): 1.39 and 1.537
Cellular activity in melanoma cells (A375), alamarBlue (A375 melanoma cells; concentration(nM) 0.4103): 1.399 and 1.952
Cellular activity in melanoma cells (A375), alamarBlue (A375 melanoma cells; concentration(nM) 0.6032): 7.8413 and 3
Cellular activity in melanoma cells (A375), alamarBlue (A375 melanoma cells; concentration(nM) 1.2043): 31.4642 and 32.5943
Cellular activity in melanoma cells (A375), alamarBlue (A375 melanoma cells; concentration(nM) 1.8024): 46.9054 and 45.198
Cellular activity in melanoma cells (A375), alamarBlue (A375 melanoma cells; concentration(nM) 2.4): 80.0356 and 78.8893
Cellular activity in melanoma cells (A375), alamarBlue (A375 melanoma cells; concentration(nM) 3): 99.9805 and 100.846

SMILES: Cc1nnn(C)c1-c1cnc2c3c4cnn(C)c4ccc3n([C@H](c3ccccc3)C3CCOCC3)c2c1.Cl [NHWD-870-HCl]
Tumor volume (A375 human melanoma; 2 mg/kg PO QD, day 0): 124.032 mm3 and 120.497 mm3 and 183.857 mm3 and 155.659 mm3 and 140.462 mm3 and 187.897 mm3
Tumor volume (A375 human melanoma; 2 mg/kg PO QD, day 4): 125.079 mm3 and 148.629 mm3 and 180.193 mm3 and 187.061 mm3 and 149.381 mm3 and 207.594 mm3
Tumor volume (A375 human melanoma; 2 mg/kg PO QD, day 7): 119.983 mm3 and 238.282 mm3 and 335.392 mm3 and 359 mm3 and 146.599 mm3 and 237.29 mm3
Tumor volume (A375 human melanoma; 2 mg/kg PO QD, day 11): 204.214 mm3 and 361.187 mm3 and 438.176 mm3 and 511.029 mm3 and 273.013 mm3 and 310.165 mm3
Tumor volume (A375 human melanoma; 2 mg/kg PO QD, day 14): 396.493 mm3 and 659.962 mm3 and 783.286 mm3 and 668.171 mm3 and 489.424 mm3 and 499.77 mm3
Tumor volume (A375 human melanoma; 2 mg/kg PO QD, day 18): 580.818 mm3 and 828.001 mm3 and 941.933 mm3 and 817.427 mm3 and 615.591 mm3 and 523.033 mm3
Tumor volume (A375 human melanoma; 2 mg/kg PO QD, day 21): 932.477 mm3 and 934.695 mm3 and 1116.85 mm3 and 993.943 mm3 and 830.361 mm3 and 759.477 mm3
Tumor volume (A375 human melanoma; 3 mg/kg PO QD, day 0): 187.407 mm3 and 129.823 mm3 and 123.552 mm3 and 162.978 mm3 and 197.865 mm3 and 111.638 mm3
Tumor volume (A375 human melanoma; 3 mg/kg PO QD, day 4): 180.115 mm3 and 100.661 mm3 and 101.808 mm3 and 169.071 mm3 and 201.772 mm3 and 81.9823 mm3
Tumor volume (A375 human melanoma; 3 mg/kg PO QD, day 7): 354.946 mm3 and 108.136 mm3 and 132.2 mm3 and 290.979 mm3 and 435.513 mm3 and 83.7227 mm3
Tumor volume (A375 human melanoma; 3 mg/kg PO QD, day 11): 333.816 mm3 and 123.623 mm3 and 211.51 mm3 and 368.326 mm3 and 511.795 mm3 and 108.132 mm3
Tumor volume (A375 human melanoma; 3 mg/kg PO QD, day 14): 869.938 mm3 and 282.077 mm3 and 467.223 mm3 and 627.735 mm3 and 985.207 mm3 and 153.932 mm3
Tumor volume (A375 human melanoma; 3 mg/kg PO QD, day 18): 947.479 mm3 and 354.935 mm3 and 602.443 mm3 and 703.598 mm3 and 1037.76 mm3 and 172.297 mm3
Tumor volume (A375 human melanoma; 3 mg/kg PO QD, day 21): 1152.24 mm3 and 633.313 mm3 and 890.897 mm3 and 1097.51 mm3 and 1306.53 mm3 and 328.738 mm3
Tumor volume (A375 human melanoma; Group 4, 1 mg/kg PO QD, day 0): 129.244 mm3 and 160.038 mm3 and 169.001 mm3
Tumor volume (A375 human melanoma; Group 4, 1 mg/kg PO QD, day 4): 194.913 mm3 and 185.189 mm3
Tumor volume (A375 human melanoma; Group 4, 1 mg/kg PO QD, day 7): 287.4 mm3 and 179.028 mm3
Tumor volume (A375 human melanoma; Group 4, 1 mg/kg PO QD, day 11): 471.867 mm3 and 223.232 mm3
Tumor volume (A375 human melanoma; Group 4, 1 mg/kg PO QD, day 14): 761.481 mm3 and 416.901 mm3
Tumor volume (A375 human melanoma; Group 4, 1 mg/kg PO QD, day 18): 1193.81 mm3 and 502.306 mm3
Tumor volume (A375 human melanoma; Group 4, 1 mg/kg PO QD, day 21): 1260.17 mm3 and 803.56 mm3 and 2033.79 mm3
